Patent US9314019B2, “Snout beetle attractant” (priority 2011, dated 2016)

System: snout beetles
Test: Field test of individual odorants in yellow Delta traps
Type: in vivo, Eremnus setulosus and/or Phlyctinus calosus
Details: for Numbers of snout beetles caught in yellow Delta traps, Mean: mean of six replications, traps collected after one week; for Numbers of snout beetles caught in yellow Delta traps, Rep. 1: replication 1; for Numbers of snout beetles caught in yellow Delta traps, Rep. 1 / Numbers of snout beetles caught in yellow Delta traps, Rep. 2 / Numbers of snout beetles caught in yellow Delta traps, Rep. 3 / Numbers of snout beetles caught in yellow Delta traps, Rep. 4 / Numbers of snout beetles caught in yellow Delta traps, Rep. 5 / Numbers of snout beetles caught in yellow Delta traps, Rep. 6: traps at ground level against apple tree trunks, collected after one week; for Numbers of snout beetles caught in yellow Delta traps, Rep. 2: replication 2; for Numbers of snout beetles caught in yellow Delta traps, Rep. 3: replication 3; for Numbers of snout beetles caught in yellow Delta traps, Rep. 4: replication 4; for Numbers of snout beetles caught in yellow Delta traps, Rep. 5: replication 5; for Numbers of snout beetles caught in yellow Delta traps, Rep. 6: replication 6
Description: Yellow Delta traps fitted with bottom sticky pads upon which odorant dispensers of the various test odorants were applied, were placed on ground level against the trunks of bearing apple trees in the Koue Bokkeveld area in the Western Cape Province, South Africa. Test orchards infested with snout beetles were selected on the farms Dennekruin and Voorsorg in the Ceres-Koue-Bokkeveld area.
Unloaded or “blank” traps with no odorants, but identical to the other traps in all other respects, were used as a control. There are no attractants registered for use on snout beetles on deciduous fruit in South Africa with which to compare the experimental results.
After one week the traps were collected and the snout beetles caught were counted and noted. Six replications were used per odorant tested. In Table 1 below the summarised results of the experiments are presented.

For `COC1=C(C)OC(C)C1=O` (centres unmarked) [2,5-Dimethyl-4-methoxy-3(2H)-furanone], the “Numbers of snout beetles caught in yellow Delta traps, Mean” value (“Numbers … in yellow Delta traps, Mean” below) was 3.5, the “Numbers of snout beetles caught in yellow Delta traps, Rep. 1” value (shortened to “Numbers … in yellow Delta traps, Rep. 1”) was 2 and the “Numbers of snout beetles caught in yellow Delta traps, Rep. 2” value (shortened to “Numbers … in yellow Delta traps, Rep. 2”) was 4. For the same molecule, the “Numbers of snout beetles caught in yellow Delta traps, Rep. 3” value (shortened to “Numbers … in yellow Delta traps, Rep. 3”) was 3, the “Numbers of snout beetles caught in yellow Delta traps, Rep. 4” value (shortened to “Numbers … in yellow Delta traps, Rep. 4”) was 2 and the “Numbers of snout beetles caught in yellow Delta traps, Rep. 5” value (shortened to “Numbers … in yellow Delta traps, Rep. 5”) was 3. The “Numbers of snout beetles caught in yellow Delta traps, Rep. 6” value (shortened to “Numbers … in yellow Delta traps, Rep. 6”) was 7.

In the case of `COc1cccc(C(C)=O)c1` [3-Methoxy acetophenone], the “Numbers … in yellow Delta traps, Mean” value is reported as 2.5, the “Numbers … in yellow Delta traps, Rep. 1” value is reported as 3 and the “Numbers … in yellow Delta traps, Rep. 2” value is reported as 1. For the same molecule, the “Numbers … in yellow Delta traps, Rep. 3” value was 6, the “Numbers … in yellow Delta traps, Rep. 4” value was 2 and the “Numbers … in yellow Delta traps, Rep. 5” value was 1. The “Numbers … in yellow Delta traps, Rep. 6” value was 2.

In the case of `CC(=O)CCC(C)C` [5-Methyl-2-hexanone], the “Numbers … in yellow Delta traps, Mean” value is reported as 2.7, the “Numbers … in yellow Delta traps, Rep. 1” value is reported as 4 and the “Numbers … in yellow Delta traps, Rep. 2” value is reported as 1. For the same molecule, the “Numbers … in yellow Delta traps, Rep. 3” value was 1, the “Numbers … in yellow Delta traps, Rep. 4” value was 5 and the “Numbers … in yellow Delta traps, Rep. 5” value was 3. The “Numbers … in yellow Delta traps, Rep. 6” value was 2.

`COc1ccccc1` [Anisole] was tested, and the “Numbers … in yellow Delta traps, Mean” value was 2.7, the “Numbers … in yellow Delta traps, Rep. 1” value was 4 and the “Numbers … in yellow Delta traps, Rep. 2” value was 1. The “Numbers … in yellow Delta traps, Rep. 3” value was 3, the “Numbers … in yellow Delta traps, Rep. 4” value was 3 and the “Numbers … in yellow Delta traps, Rep. 5” value was 2. The “Numbers … in yellow Delta traps, Rep. 6” value was 3.

With `O=C(O)C1CC1` [Cyclopropane carboxylic acid] the “Numbers … in yellow Delta traps, Mean” value was 7.8, the “Numbers … in yellow Delta traps, Rep. 1” value was 6 and the “Numbers … in yellow Delta traps, Rep. 2” value was 7. The “Numbers … in yellow Delta traps, Rep. 3” value was 5, the “Numbers … in yellow Delta traps, Rep. 4” value was 7 and the “Numbers … in yellow Delta traps, Rep. 5” value was 3. For the same molecule, the “Numbers … in yellow Delta traps, Rep. 6” value was 19.
